Results from patent publication US12145920B2, “Lanthionine c-like protein 2 ligands, cells prepared therewith, and therapies using same” (NImmune Biopharma, Inc., priority 2019, dated 2024).
“Also recorded” adds a separate entry of the source.

Legend:
CD4+ T cells = experiment: Immune effects in CD4+ splenocytes, flow cytometry (wild type); format: cell-based, C57BL/6 mice
Description: Cell culture. Spleens were excised from C57BL/6 mice and assessed in wild-type and LANCL2 deficient states. Spleens were crushed between the frosted ends of microscope slides and filtered to provide a cellular suspension. Red blood cells were lysed through hypotonic lysis. Remaining cells were washed and filtered. CD4+ T cells were enriched within the suspension using magnetic sorting based negative selection. Cells were collected and plated within 96 well plates coated with anti-CD3 and cultured in the presence of BT-63 at 0, 0.1, 1 and 10 micromolar or BT-104A, BT-104B, or BT-104C at 0.1 micromolar for 48 h. During the last 6 h of culture, cells were stimulated with phorbol 12-myristate-13-acetate (PMA) and ionomycin.
Immunological analysis. Cells were collected from 96 well plates and stained with a cocktail of antibodies for immunophenotyping by flow cytometry. Culture supernatant was collected and assayed for cytokine concentrations by cytometric bead array. Data was captured on a BD FACS Celesta and analyzed using FacsDiva.

MDR1a-/- mice = experiment: MDR1a-/- chronic model of IBD; format: in vivo
Experimental: MDR1a−/− model. Mice deficient in MDR1a spontaneously develop colitis. MDR1a−/− began receiving BT-63 treatment (oral, 20 mg/kg) at 6 weeks of age and continued treatment until 10 weeks of age. Mice were weighed and scored weekly. Treatment administration. BT-63 was prepared within a 0.5% methylcellulose (12-15 cP) solution. Dosage used was 20 mg/kg delivered once daily. Mice were weighed on a weekly basis to update dosage formulation. Dosage was calculated based off mean body weights for each gender. Oral dosage was delivered by orogastric gavage of dosage in 0.2 mL volume. Flow Cytometry. […]
collagenase (300U/mL) and DNase (50U/mL) for digestion. Tissues were digested for 60 minutes under stirring at 37° C. Resultant cellular suspensions were filtered through 100 μm strainers, centrifuged (300×g, 8 min), and washed in fresh RPMI. Following filtration of the resulting single cell suspensions, immune cells were purified by Percoll gradient of cell-containing 40% Percoll overlayed onto 70% Percoll solution. After centrifugation, interphase was collected and washed to obtain enriched colonic lamina propria cell fractions. Cells were labeled with mixtures of extracellular (CD45, CD3, CD4, CD8, CD19, NK1.1, CD25, F4/80, CD11b, Gr1, CX3CR1, CD64) and intracellular (Tbet, RORyT, FOXP3, IFNγ, IL17, IL10) antibodies in a sequential live staining in 96-well plates. Data was acquired using a FACS Celesta flow cytometer with FACSDiva software.

Naïve CD4+ T cells = experiment: In vitro Treg differentiation of naive CD4+ T cells with BT-63; format: cell-based, mice
Experimental: Naïve CD4+ T cells can be isolated from the spleens of mice by magnetic sorting. The isolated cells can be incubated in anti-CD^3/anti-CD28 coated 96 well plates in Treg differentiation media. The Treg differentiation media can be Iscove's Modified Dulbecco's Medium (IMDM) media (ThermoFisher Scientific) supplemented with fetal bovine serum, HEPES, penicillin/streptomycin, L-glutamine, and differentiation agents. The Treg differentiation agents can be 10 nM all-trans-retinoic acid and 5 ng/mL TGF-β. Additional experiments can be conducted comparing differentiation in the Treg differentiation media with and without the addition of 10 ng/mL IL-2 or IL-12. Cells can be incubated with vehicle, 10 nM, or 100 nM BT-63 in differentiation media for 48 hours prior to assay. Prior to assay, cells can be stimulated with PMA and ionomycin for 6 hours.
Colonic lamina propria lymphocytes and cultured cells can be plated in 96 well plates (6×10^5 cells/well) and processed for immunophenotyping by flow cytometry as previously described. Briefly, cells can be incubated with fluorochrome conjugated antibodies to extracellular markers: CD45, CD4, CD3, CD25, CD8. Samples needing a secondary staining can be incubated with secondary antibodies, or streptavidin-conjugated fluorochrome. The samples can then be fixed and permeabilized. Cells can be incubated with antibodies to intracellular markers: Tbet, IFNγ, IL10, FOXP3, IL17, RORγT. Data can be acquired with a BD FACS Celesta flow cytometer and analyzed using FACS Diva software (BD Pharmingen).

[1] = wild-type cells, 0.1, 1 and 10 μM, 48 h
[2] = colonic lamina propria, four weeks oral 20 mg/kg
[3] = spleen, four weeks oral 20 mg/kg

O=C(CN1CCN(C(=O)c2cccc(-c3nc4ccccc4[nH]3)n2)CC1)c1ccccc1 [BT-63, 2-(4-(6-(1H-benzo[d]imidazol-2-yl)picolinoyl)piperazin-1-yl)-1-phenylethanone]
FOXP3+ CD4+ T cells (CD4+ T cells; 0.1, 1 and 10 micromolar, FIG. 4A): significant increase
proportions of IFNγ+ CD4+ T cells (CD4+ T cells; [1]): reduced; also recorded: significant decrease
proportions of IL10+ FOXP3+ CD4+ T cells (CD4+ T cells; [1]): increased
proportions of TNFa-producing CD4+ T cells (CD4+ T cells; [1]): reduced
proportions of regulatory CD4+ CD25+ T cells (MDR1a-/- mice; colon, four weeks oral 20 mg/kg): increased
proportions of Th1 (MDR1a-/- mice; [2]): reduces
proportions of Th17 (MDR1a-/- mice; [2]): reduces
proportions of neutrophils (MDR1a-/- mice; [2]): reduces
splenic CD25+ Tregs (MDR1a-/- mice; [3]): increased
splenic Th1 cells (MDR1a-/- mice; [3]): decreased
maximal observed reduction of disease activity (MDR1a-/- mice; week four of treatment, oral 20 mg/kg): 90%
establishment of a CD25+ FOXP3+ subtype (Naïve CD4+ T cells; 100 nM, absence of IL-2): significantly increase
CD25+ FOXP3+ cells (Naïve CD4+ T cells; IL-12-treated samples): significantly higher levels
mixed CD25+ Tbet+ subtype (Naïve CD4+ T cells; Treg differentiation with or without IL-2): not be statistically altered
CD25+ Tbet+ cells (Naïve CD4+ T cells; addition of IL-12): dose-dependent protection
STAT5a phosphorylation (Naïve CD4+ T cells; base Treg differentiation media, also with IL-2 or IL-12): phosphorylated in a greater ratio
FOXO1 phosphorylation (Naïve CD4+ T cells; base media and media containing IL-2, not IL-12): similarly be affected
CD25+ FOXP3+ cells (Naïve CD4+ T cells; concentrations as low as 10 nM, presence of IL-2): significantly more
